The results in this text go back to PMC4563558, “Discovery of a series of novel phenylpiperazine derivatives as EGFR TK inhibitors” (Scientific Reports, 2015).

The test system of one series is A549. Description: MTT antiproliferation assay, A549. The series is classed as cell-based. The note with it: Homo sapiens, 72 h exposure, read-out: IC50 ± SD, A549. As for the experimental part:
(§1) To test the antiproliferative activities of the synthesized compounds (see supplementary Scheme S1 and S2), the target compounds were evaluated in vitro antiproliferation assays against three human cancer cell lines (MCF-7, HeLa and A549) and one human normal lung cell line.
(§2) The in vitro anticancer activities of the prepared compounds against MCF-7, HeLa and A549 cell lines were evaluated as described in the literature[23] with some modifications. Target tumor cells were grown to log phase in DMEM medium supplemented with 10% fetal bovine serum. After reaching a dilution of 1 × 10^5 cells mL^−1 with the medium, 100 μL of the obtained cell suspension was added to each well of 96-well culture plates. Subsequently, incubation was performed at 37 °C in 5% CO2 atmosphere for 48 h before the cytotoxicity assessment. Tested samples at preset concentrations were added to 6 wells with Erlotinib being employed as a positive reference. After 72 h exposure period, 25 μL of PBS containing 2.5 mg mL^−1 of MTT was added to each well. After 4 h, the medium was replaced by 150 μL DMSO to dissolve the purple formazan crystals produced. The absorbance at 570 nm of each well was measured with an ELISA plate reader. The data represented the mean of three independent experiments in triplicate and were expressed as means ± SD. The IC50 value was defined as the concentration at which 50% of the cells could survive.

The next series has as its system MCF-7. Description: MTT antiproliferation assay, MCF-7. The series is classed as cell-based. The note with it: Homo sapiens, MCF7, 72 h exposure, read-out: IC50 ± SD, MCF-7. As for the experimental part:
as §1, §2
(Formazan colour is commonly taken as a measure of viable cells.)

A further series deals with A549 cells. Description: Tumor volume in nude mice inoculated with A549 cells. The series is classed as in vivo. Conditions: for Test/Control (tumor volume): 40 mg/kg/2 days. The protocol: To further evaluate the antitumor effect of compound 3p in vivo, we performed an animal study. Mice were inoculated subcutaneously with A549 cells (5.0 × 10^6) on their shoulders. […]. […] […].
Male BALB/c nude mice, 35–40 days old and weighing 18–22 g, were supplied by Shanghai Laboratory Animal Limited Company. The mice were raised in air-conditioned rooms under controlled lighting (12 h lighting/day) and were fed with standard laboratory food and water ad libitum. Before injection into the mice, the lung cancer cells (A549) were harvested by trypsinization and washed three times with cold serum-free medium and then injected in a total volume of 0.1 mL using a 1-mL latex-free syringe (BD) within 30 min of harvest. Mice were inoculated subcutaneously with A549 cells (5.0 × 10^6) on their shoulders. When the tumor had increased to 100 mm^3 , the mice were equally randomized into 4 groups (with 6 mice/group): saline tumor control group; compound 3p 20 mg/kg/2 days group; compound 3p 40 mg/kg/2 days group; […]. The control group received 0.9% normal saline. Tumor size was measured once every 2 days in two per-pendicular dimensions with Vernier calipers and converted to tumor volume (TV) using the formula: (ab^2)/2, where a and b refer to the longer and shorter dimensions, respectively. The body weight of the animals was measured twice a week at the same time as the tumor dimension measurement and the mortality was monitored daily. After the treatments, all mice were killed and weighed simultaneously, and then tumor was segregated and weighed.

Series [1] has as its system MCF-7, HeLa and A549 cell lines. Description: Anticancer activities discussed in text (cell line not specified). In kind it is cell-based, human. Conditions: comparison within series and with positive control. The protocol: According to the data presented in Table 1, it could be concluded that the activity of the tested compounds may be correlated to the variation and modifications of structure.
as §2

The next series has as its system Erythrocytes. Description: Hemolysis test. The note with it: human erythrocytes, 3 h incubation. In kind it is cell-based. The protocol: Hemolytic activity was assayed using fresh capillary human blood. Erythrocytes were collected by centrifuging the blood three times in chilled phosphate buffered saline (PBS at 4 °C) at 1000 × g for 10 min. The final pellet was resuspended in PBS to give a 2% w/v solution. Using a microtitre plate, 100 μL of the erythrocyte solution was added to dextran, PLL, stearyl-PLL or stearyl-PLL+LDL (1–1000/μg/mL) in a volume of […]. Samples were then incubated for 3 h and the microtitre plate was centrifuged then at 1000 × g for 10 min and the supernatants (100 μL) transferred into a new microtitre plate. Hemoglobin release was determined spectrophotometrically using a microtitre plate reader (absorbance at 550 nm). Results were expressed as the amount of released hemoglobin induced by the compounds as a percentage of the total. Hemolysis test was tested according to the guide of biological evaluation of medical device (SFDA, China).

For another series, the target named is PDGFR. Description: Kinase selectivity assay (kit), PDGFR. In kind it is biochemical. Conditions: read-out: Inhibition of PDGFR IC50. As for the experimental part:
(§3) To validate whether the above anti-proliferative effect was produced by interaction of EGFR protein and the synthesized compounds, the synthesized compounds were evaluated for their abilities to inhibit the activity of four protein kinases relevant to cancer: EGFR, VEGFR2, bFGF, PDGFR. […] Additionally, the activity data inferred that the IC50 values of these compounds shared a similar tendency with their relevant IC50 values of anti-proliferative assay. […] Therefore, we could conclude that the synthesized inhibitors can inhibit the function of EGFR and the anti-proliferative effect was produced partly by interaction of EGFR protein and the compounds.
(§4) The EGFR, VEGFR2, bFGF and PDGFR Kinase Assay Kit were purchased from Bio-Swamp. The experiments were performed according to the manufacturer’s instructions.

For the next series, the system named is HeLa. The experiment in a line: MTT antiproliferation assay, HeLa. In kind it is cell-based. The note with it: Homo sapiens, 72 h exposure, read-out: IC50 ± SD, HeLa. The protocol: as §1, §2
In a further series the target is T1, VEGFR2 (Homo sapiens, UniProt P35968).
T1 construct: purchased Bio-Swamp
T1 sequence (P35968 20-1356, species assumed): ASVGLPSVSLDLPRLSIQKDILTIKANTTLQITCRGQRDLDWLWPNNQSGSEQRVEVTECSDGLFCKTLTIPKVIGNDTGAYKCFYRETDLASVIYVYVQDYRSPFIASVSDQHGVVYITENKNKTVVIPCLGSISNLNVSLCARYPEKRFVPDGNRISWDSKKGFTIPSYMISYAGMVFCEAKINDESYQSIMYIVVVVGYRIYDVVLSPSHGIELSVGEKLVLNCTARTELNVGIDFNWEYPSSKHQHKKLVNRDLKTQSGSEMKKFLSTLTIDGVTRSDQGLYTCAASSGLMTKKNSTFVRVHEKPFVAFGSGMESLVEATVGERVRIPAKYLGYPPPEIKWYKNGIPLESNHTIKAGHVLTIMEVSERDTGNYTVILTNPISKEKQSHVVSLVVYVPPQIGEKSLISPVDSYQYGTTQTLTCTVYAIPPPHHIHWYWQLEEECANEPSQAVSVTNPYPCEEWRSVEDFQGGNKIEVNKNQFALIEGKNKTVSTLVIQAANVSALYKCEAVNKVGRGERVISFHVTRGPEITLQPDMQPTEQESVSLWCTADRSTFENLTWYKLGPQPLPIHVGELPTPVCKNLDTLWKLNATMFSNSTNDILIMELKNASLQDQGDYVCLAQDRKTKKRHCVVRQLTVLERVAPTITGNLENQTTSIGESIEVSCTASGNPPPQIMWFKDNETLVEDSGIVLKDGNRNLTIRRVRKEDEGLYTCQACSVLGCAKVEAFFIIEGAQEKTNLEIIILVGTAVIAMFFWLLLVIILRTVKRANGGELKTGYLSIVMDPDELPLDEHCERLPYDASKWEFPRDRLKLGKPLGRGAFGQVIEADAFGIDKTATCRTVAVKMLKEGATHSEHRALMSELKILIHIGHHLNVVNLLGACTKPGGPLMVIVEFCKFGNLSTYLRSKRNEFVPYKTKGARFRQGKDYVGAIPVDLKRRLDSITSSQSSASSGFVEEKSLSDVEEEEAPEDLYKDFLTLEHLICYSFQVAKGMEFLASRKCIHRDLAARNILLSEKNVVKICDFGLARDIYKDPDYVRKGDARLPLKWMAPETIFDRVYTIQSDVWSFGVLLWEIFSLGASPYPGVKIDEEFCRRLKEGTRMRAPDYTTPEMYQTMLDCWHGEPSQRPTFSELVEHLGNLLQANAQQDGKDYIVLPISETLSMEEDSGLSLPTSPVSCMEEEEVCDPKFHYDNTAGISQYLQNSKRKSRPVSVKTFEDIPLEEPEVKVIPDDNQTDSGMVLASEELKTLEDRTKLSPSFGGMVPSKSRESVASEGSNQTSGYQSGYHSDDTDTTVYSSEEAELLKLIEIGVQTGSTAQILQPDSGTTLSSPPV
The experiment in a line: Kinase selectivity assay (kit), VEGFR2. In kind it is biochemical. The note with it: read-out: Inhibition of VEGFR2 IC50. As for the experimental part:
as §3, §4

A short description of the next series: in vitro. The note with it: mouse. In kind it is cell-based. The protocol:
The cytotoxic activity in vitro was measured against mouse fibroblast NIH-3T3 cells using the MTT assay. Cells were cultured in a 96-well plate at a density of 5 × 10^5 cells and different concentrations of compounds were respectively added to each well. The incubation was permitted at 37 °C, 5% CO2 atmosphere for 24 h before the cytotoxicity assessments. 20 μL MTT reagent (4 mg/mL) was added per well 4 h before the end of the incubation. Four hours later, the plate was centrifuged at 1200 rcf for 5 min and the supernatants were removed, each well was added with 200 μL DMSO. The absorbance was measured at a wavelength of 490 nm (OD 490 nm) on an ELISA microplate reader. Three replicate wells were used for each concentration and each assay was measured three times, after which the average of IC50 was calculated.

A further series addresses bFGF. Description: Kinase selectivity assay (kit), bFGF. In kind it is biochemical. Conditions: read-out: Inhibition of bFGF IC50. The protocol: as §3, §4
A further series has as its target T2, EGFR (Homo sapiens, UniProt P00533).
T2 construct: purchased Bio-Swamp
Description: Kinase selectivity assay (kit), EGFR. In kind it is biochemical. Conditions: read-out: Inhibition of EGFR IC50. As for the experimental part: as §4

Another series deals with Lung cells. The experiment in a line: MTT assay, human normal lung cell line. The series is classed as cell-based. The note with it: read-out: IC50 ± SD, Lung cells. As for the experimental part:
as §1, §2

Series [2] can be described thus: Acute oral toxicity, bodyweights. The series is classed as in vivo. The note with it: mice; for Bodyweights 0 day ± SD: day 0; for Bodyweights 7 days ± SD: day 7. The protocol:
Before the acute toxicity experiment, mice were stopped being served food but water was kept for 3 h. The test substances were dissolved in maize germ oil[24]. The preliminary experiment was performed as follows: Four dose levels, 100, 500, 2000, and 5000 mg/kg body weight and three mice for each level were used. We observed the death and evident toxicity in 7 days to determine the general concentration range. Then the administration doses were graded with geometric progression for ease of the calculation of LD50. Mice were randomly divided into groups (10 mice/group). […] The control groups received maize germ oil only. After the administration, food was withheld for 2 h.

T2 sequence (P00533 25-1210): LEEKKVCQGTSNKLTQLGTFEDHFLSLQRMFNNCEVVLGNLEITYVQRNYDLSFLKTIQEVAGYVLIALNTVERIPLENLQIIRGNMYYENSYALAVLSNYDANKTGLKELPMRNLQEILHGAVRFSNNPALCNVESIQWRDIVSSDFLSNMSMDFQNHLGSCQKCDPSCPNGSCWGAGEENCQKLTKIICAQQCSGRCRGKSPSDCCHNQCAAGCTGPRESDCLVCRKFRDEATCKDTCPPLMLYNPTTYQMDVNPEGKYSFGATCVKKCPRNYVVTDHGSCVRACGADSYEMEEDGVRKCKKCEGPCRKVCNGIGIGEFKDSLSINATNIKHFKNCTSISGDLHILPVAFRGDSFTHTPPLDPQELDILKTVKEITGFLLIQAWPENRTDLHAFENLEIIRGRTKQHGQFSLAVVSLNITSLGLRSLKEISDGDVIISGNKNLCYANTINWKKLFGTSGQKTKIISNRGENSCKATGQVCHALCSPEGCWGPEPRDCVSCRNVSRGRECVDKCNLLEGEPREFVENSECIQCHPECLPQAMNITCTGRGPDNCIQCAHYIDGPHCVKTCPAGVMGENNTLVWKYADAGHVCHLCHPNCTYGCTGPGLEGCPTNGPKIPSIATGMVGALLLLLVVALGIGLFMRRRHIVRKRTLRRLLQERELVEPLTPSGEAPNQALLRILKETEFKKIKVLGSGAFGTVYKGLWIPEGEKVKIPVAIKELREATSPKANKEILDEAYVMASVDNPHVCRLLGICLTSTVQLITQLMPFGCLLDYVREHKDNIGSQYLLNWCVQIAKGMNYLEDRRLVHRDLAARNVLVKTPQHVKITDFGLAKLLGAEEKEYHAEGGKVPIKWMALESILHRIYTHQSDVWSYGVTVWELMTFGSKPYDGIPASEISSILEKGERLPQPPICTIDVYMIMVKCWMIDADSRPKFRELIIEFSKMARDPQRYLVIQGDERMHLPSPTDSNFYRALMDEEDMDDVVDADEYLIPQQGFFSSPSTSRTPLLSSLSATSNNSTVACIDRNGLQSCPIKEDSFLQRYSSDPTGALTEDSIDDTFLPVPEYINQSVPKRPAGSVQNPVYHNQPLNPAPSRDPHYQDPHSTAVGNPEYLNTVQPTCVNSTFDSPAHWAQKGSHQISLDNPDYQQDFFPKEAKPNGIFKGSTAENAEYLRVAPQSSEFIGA

`COc1cc(OC)nc(NC(=O)CN2CCN(c3ccc(Cl)c(Cl)c3)CC2)n1` [3p, 2-(4-(3,4-dichlorophenyl)piperazin-1-yl)-N-(4,6-dimethoxypyrimidin-2-yl)acetamide]: the IC50 is 0.05 ± 0.0003 µM in the series with A549; 0.22 ± 0.001 µM in the series on MCF-7; 17.3 ± 0.95 µM on PDGFR; 0.08 ± 0.0002 µM in the series on HeLa; 2.15 ± 0.06 µM at VEGFR2; 27.1 ± 3.17 µM at bFGF. The IC50 at EGFR came out at 0.02 ± 0.003 µM; in the series on Lung cells, 189 ± 3.82 µM. For the same compound, the Weight of tumor result in the series on A549 cells (40 mg/kg, day 14) is on record as “significantly reduced”. Also, the “Test/Control (tumor volume)” value in the series with A549 cells (day 4) is reported as 42.79%; in the series on A549 cells (day 6), 49.61%; with A549 cells (day 8), 50.79%; in the series on A549 cells (day 10), 60.00%; in the series with A549 cells (day 12), 61.22%. Besides, the “Effect on mice body weight” value with A549 cells (14-day treatment, nude mice) was “did not observe significant growth inhibition of mice body weight”. In addition, the “Mortality during the treatment” value in the series with A549 cells (mouse, in vivo) is recorded as “none of the mice died”. The “Anticancer / antitumor activity (in words)” value in [1] is on record as “most potent anticancer activities”. Further, the “Hemolysis LC30 (lytic concentration 30%)” value in the series with Erythrocytes was greater than 10000 µg/mL. The compound further displayed an IC50 at 24 h in “in vitro” of 239 ± 4.03 µM. Moreover, in series [2], the “Bodyweights 0 day ± SD” value came out at 22.12 ± 1.13 g. In [2], the “Bodyweights 7 days ± SD” value stood at 27.33 ± 1.08 g.

Turning to `COc1cc(OC)nc(NC(=O)CN2CCN(c3ccccc3)CC2)n1` [3d, N-(4,6-Dimethoxypyrimidin-2-yl)-2-(4-phenylpiperazin-1-yl)acetamide], the IC50 in the series on A549 turned out to be 2.17 ± 0.02 µM; in the series with MCF-7 it was 9.87 ± 1 µM; on PDGFR, 8.5 ± 0.09 µM; with HeLa, 10.2 ± 0.28 µM; at VEGFR2 it was 10.1 ± 1.08 µM; at bFGF it was 18.5 ± 2.11 µM. Further, the IC50 at EGFR was 5.11 ± 0.03 µM; in the series on Lung cells it was 136 ± 3.15 µM. In addition, the “Anticancer / antitumor activity (in words)” value in series [1] is reported as “worst anticancer activity”. In the series with Erythrocytes, the “Hemolysis LC30 (lytic concentration 30%)” value was greater than 10000 µg/mL. Moreover, inhibition in “in vitro” was half-maximal at 150 ± 2.56 µM (IC50 at 24 h). Moreover, the “Bodyweights 0 day ± SD” value in series [2] is given as 21.18 ± 2.15 g. In series [2], the “Bodyweights 7 days ± SD” value is recorded as 25.57 ± 1.56 g.

One may read the IC50 as the concentration at which inhibition is half-maximal.
